Reference: US11672792B2, “Topical formulations comprising montelukast and combinations with mussel adhesive proteins” (ENLITISA (SHANGHAI) PHARMACEUTICAL CO., LTD, priority 2017, dated 2023)
Where two headings read alike, the source gives them in different places.

Legend:
[1] = tested on: carrageenan-induced acute inflammation in subcutaneous air pouch; assay: Air Pouch Model II (Example 2); type: in vivo, mice; parameters: Fibroplastic proliferation score / Inflammation score / Activity score / Edema Score / Sum (of histology scores): scale not given here; conditions: Dopamine 2 mg, MAP 250 μg, Mon 100 μg
Description: In Table 6, “Dex” is an abbreviation for dexamethasone and “Dopamine” is a 4 mg/mL aqueous solution of dopamine hydrochloride (Shanghai Aladdin Bio-Chem Technology Co., Ltd., Shanghai, China).
The histological specimens were analysed and an inflammation score, an activity score and a fibroplastic proliferation score were estimated as in Example 1 above and are tabulated in Table 9 below.

[2] = tested on: burn wounds; assay: Burn Injury Model (Example 3); type: in vivo, Sprague-Dawley rats; conditions: per wound: dexamethasone 0.4 mg, MAP 0.25 mg, montelukast 0.25 mg, once daily topically
Description: Healthy adult male Sprague-Dawley rats weighing between 200 and 300 g were supplied by Beijing Vital River Laboratory Animal Technology Co. Ltd, Beijing, China.
Prior to any experiments being conducted, rats were housed under standardized conditions (at a constant temperature or 22 t 2° C., with alternating 12 hour periods of light and darkness) and were fed on a standard rat diet with water.
Rats were anaesthetised with 3% chloral hydrate (Sinopharm Chemical Reagent Co., Ltd., Shanghai, China) (1 mL/100 g of body weight) administered by intraperitoneal injection. The dorsal trunk was of each rat was shaved with an electric razor and surgically prepared with 70% alcohol scrubs. A constant temperature and constant pressure scald instrument (YLS-5Q, Shandong Academy of Medical Sciences, China) was employed, as this allows for a precise measurement of pressure applied to the skin surface. Thermal injury was induced by heating a stylus (with a surface area of 4 cm^2) to 80° C. and applying the stylus to the surface of the skin for a contact time of 18 seconds. 500 grams of pressure was applied during the operation. In this way, four two-degree shallow to deep burn wounds were created on each rat. Test compounds or vehicle were applied to the surface of the wound.
Rats were kept in separate cages but were allowed to move freely throughout the test period. In the first treatment, 500 μL of the relevant solutions was applied about 3 to 4 hours after the surgery (Day 0) and then once daily for the next 7 days. Gross appearances of the scald wounds were observed every day. Photographs were taken at 48 hours (Day 2), and on the 4th (Day 4) and 7th (Day 7) days with a digital camera to compare wound healing. The skin lesions were evaluated for the following criteria: blistering, swelling, redness, crust, bleeding, secretion, granulation tissue and scar tissue. The degree of healing was expressed as the wound contraction ratio (WCR): WCR=(A0−At)/A0×100% in which A0 and At refer to the initial area and the wound area at time t, respectively.
On Days 2, 4 and 7 after application of the burn, two rats were sacrificed and the burned skins excised. The freshly isolated skin was fixed in 10% neutral buffered formalin (which contained 4% of formaldehyde). This was used for histological embedding, staining and immunohistochemical studies.
Administered solutions were made up substantially as described in Example 1 above.
Burn scores are shown in Table 12 below and are illustrated in FIG. 3. Skin samples were sent to the Department of Pathology of Nanjing Hospital of Chinese Medicine, China. Samples were fixed and embedded, and histological sections were cut and stained. The stained sections were examined under a light microscope and pictures were taken. All pictures were interpreted and scored according to the following criteria: first degree—the epidermis was damaged and the substrate remains intact (score 1 point); superficial second degree—the epidermis was completely damaged and the papillary layer was damaged (1.5 points): deep second degree—the dermis was injured into the reticular layer and retain some dermis (2.5 points); and third degree—the dermis was completely damaged and the muscles and/or bones affected (3 points).

[3] = tested on: carrageenan-induced acute inflammation in subcutaneous air pouch; assay: Air Pouch Model: Combination of Montelukast (Example 5); type: in vivo, mice; conditions: MAP 1.5 mg, Mon 200 μg; for Activity score / Edema Score / Fibroblast proliferation score / IFN-γ in exudate (ELISA) / IL-6 in exudate (ELISA) / IL-10 in exudate (ELISA) / Inflammation score / Leukocyte count in exudate / Lymphocyte count in exudate / Monocyte count in exudate / Neutrophil count in exudate / Sum (of histology scores) / TNF-α in exudate (ELISA): dexamethasone 200 μg; for Exudate volume / Pouch Wall Weight: doses/mouse: dexamethasone 200 μg
[4] = for Montelukast amount in skin sample: unscalded intact skin
[5] = in vivo; conditions: Sprague Dawley, rat, skin (unscalded intact, full thickness), topical, 1 g montelukast cream
[6] = pH and stability of montelukast formulations; conditions: PEG-based creams or ointments; not prone to oxidation

SMILES: C[C@@H]1C[C@H]2[C@@H]3CCC4=CC(=O)C=C[C@]4(C)[C@@]3(F)[C@@H](O)C[C@]2(C)[C@@]1(O)C(=O)CO [Dexamethasone, dexamethasone]
- Activity score ([1]; Dex 400 μg): 0.33
- Edema Score ([1]; Dex 400 μg): 0.83
- Fibroplastic proliferation score ([1]; Dex 400 μg): 0.00
- IFN-γ in exudate (ELISA) ([1]; Dex 400 μg): 238.91 ± 272.27
- IL-6 in exudate (ELISA) ([1]; Dex 400 μg): 3697.30 ± 5112.52
- Inflammation score ([1]; Dex 400 μg): 0.83
- Leukocyte count in exudate ([1]; Dex 400 μg): 880000 mL⁻¹
- Lymphocyte count in exudate ([1]; Dex 400 μg): 30000 mL⁻¹
- Monocyte count in exudate ([1]; Dex 400 μg): 670000 mL⁻¹
- Neutrophil count in exudate ([1]; Dex 400 μg): 130000 mL⁻¹
- Sum (of histology scores) ([1]; Dex 400 μg): 2.00
- Exudate volume ([1]; doses/mouse: Dex 400 μg): 2.87 ± 0.06 mL
- Pouch Wall Weight ([1]; doses/mouse: Dex 400 μg): 0.45 ± 0.01 g
- Burn score ([2]; Day 2): 2.25
- Burn score ([2]; Day 4): 2.64
- Burn score ([2]; Day 7): 2.50
- Activity score [3]: 0.83
- Edema Score [3]: 1.67
- Fibroblast proliferation score [3]: 0.00
- IFN-γ in exudate (ELISA) [3]: 2879 ± 1267
- IL-6 in exudate (ELISA) [3]: 3649 ± 1764
- IL-10 in exudate (ELISA) [3]: 52.33 ± 11.60
- Inflammation score [3]: 1.50
- Leukocyte count in exudate [3]: 2.48e+06 mL⁻¹
- Lymphocyte count in exudate [3]: 2.08e+06 mL⁻¹
- Monocyte count in exudate [3]: 50000 mL⁻¹
- Neutrophil count in exudate [3]: 220000 mL⁻¹
- Sum (of histology scores) [3]: 4.00
- TNF-α in exudate (ELISA) [3]: 71.31 ± 111.19
- Exudate volume [3]: 3.60 ± 0.14 mL
- Pouch Wall Weight [3]: 0.72 ± 0.09 g

SMILES: CC(C)(O)c1ccccc1CC[C@@H](SCC1(CC(=O)O)CC1)c1cccc(/C=C/c2ccc3ccc(Cl)cc3n2)c1 [Mon, Montelukast sodium]
- Fibroplastic proliferation score ([1]; Dex 400 μg): 0.00
- Burn score ([2]; Day 2): 1.50
- Burn score ([2]; Day 4): 2.38
- Burn score ([2]; Day 7): 2.00
- Activity score [3]: 1.00
- Fibroblast proliferation score [3]: 0.83
- Inflammation score [3]: 2.17
- Leukocyte count in exudate [3]: 3.82e+06 mL⁻¹
- Lymphocyte count in exudate [3]: 3.22e+06 mL⁻¹
- Monocyte count in exudate [3]: 170000 mL⁻¹
- Neutrophil count in exudate [3]: 290000 mL⁻¹
- Sum (of histology scores) [3]: 5.50
- Edema Score ([3]; listed as MON-O): 1.00
- Fibroblast proliferation score ([3]; listed as MON-O): 0.33
- Leukocyte count in exudate ([3]; listed as MON-O): 2.38e+06 mL⁻¹
- Lymphocyte count in exudate ([3]; listed as MON-O): 1.98e+06 mL⁻¹
- Monocyte count in exudate ([3]; listed as MON-O): 70000 mL⁻¹
- Neutrophil count in exudate ([3]; listed as MON-O): 210000 mL⁻¹
- Sum (of histology scores) ([3]; listed as MON-O): 4.17
- IFN-γ in exudate (ELISA) ([3]; listed as Mon (oral)): 2495 ± 711
- IL-6 in exudate (ELISA) ([3]; listed as Mon (oral)): 8453 ± 9758
- IL-10 in exudate (ELISA) ([3]; listed as Mon (oral)): 52.59 ± 7.22
- TNF-α in exudate (ELISA) ([3]; listed as Mon (oral)): 39.41 ± 17.62
- IFN-γ in exudate (ELISA) ([3]; listed as Mon (topical)): 1690 ± 725
- IL-6 in exudate (ELISA) ([3]; listed as Mon (topical)): 2528 ± 1538
- IL-10 in exudate (ELISA) ([3]; listed as Mon (topical)): 68.18 ± 15.81
- TNF-α in exudate (ELISA) ([3]; listed as Mon (topical)): 90.73 ± 109.02
- Exudate volume [3]: 3.68 ± 0.15 mL
- Pouch Wall Weight [3]: 0.66 ± 0.13 g
- Exudate volume ([3]; listed as MON-O): 3.58 ± 0.15 mL
- Pouch Wall Weight ([3]; listed as MON-O): 0.67 ± 0.10 g
- Montelukast amount in skin sample ([4]; 0 h, 1 g montelukast cream topically): 0 g
- Montelukast amount in skin sample ([4]; 1 h): 2.53 g
- Montelukast amount in skin sample ([4]; 2 h): 5.44 g
- Montelukast amount in skin sample ([4]; 3 h): 0.89 g
- Montelukast amount in skin sample ([4]; 6 h): 0.90 g
- Montelukast amount in skin sample ([4]; 8 h): 3.54 g
- time of montelukast peak in skin ([4]; scalded skin): 2 h
- concentration at 0 h [5]: 0 ng/g
- concentration at 1 h [5]: 36700 ng/g
- concentration at 2 h [5]: 68000 ng/g
- concentration at 3 h [5]: 13400 ng/g
- concentration at 6 h [5]: 15600 ng/g
- concentration at 8 h [5]: 55300 ng/g
- stability of formulation (in words) [6]: surprisingly stable
